Measurements taken from article PMC11901902, “Design, Synthesis, and Cytotoxicity Evaluation of Novel Indolin-2-One Based Molecules on Hepatocellular Carcinoma HepG2 Cells as Protein Kinase Inhibitors” (Molecules, 2025).
Like-named read-outs stand apart in the source and are kept apart here.

Columns and labels:
[1] = tested on: MCF-7 cells; assay: MTT cytotoxicity assay on MCF-7 cells; type: cell-based; conditions: Homo sapiens, MCF7; for viability at 1.25 µM: MCF-7, 1.25 µM; for viability at 2.5 µM: MCF-7, 2.5 µM; for viability at 5 µM: MCF-7, 5 µM; for viability at 10 µM: MCF-7, 10 µM; for viability at 20 µM: MCF-7, 20 µM; for viability at 40 µM: MCF-7, 40 µM; for viability at 80 µM: MCF-7, 80 µM; for viability at 160 µM: MCF-7, 160 µM
Method: (§1) Cytotoxic activity of the synthesized compounds was evaluated against HepG-2 and MCF-7 cancer cell lines using the MTT assay. The tested cell lines were obtained from the American Type Culture Collection (ATCC, […], USA) through the Tissue Culture Unit, The Egyptian Organization for Biological Products and Vaccines (Vacsera, Giza, Egypt). Indirubin, chemicals, and solvents were purchased from Sigma-Aldrich (St. Louis, MO, USA). The cells were grown on RPMI-1640 medium supplemented with 10% inactivated fetal calf serum and 50 µg/mL gentamycin. The cells were maintained at 37 °C in a humidified atmosphere with 5% CO2 and were sub-cultured two to three times per week. For antitumor assays, the tumor cell lines were suspended in the medium at concentration 5 × 10^4 cell/well in Corning® 96-well tissue culture plates (Corning, Corning, NY, USA), then incubated for 24 h. The tested molecules were then added to 96-well plates (six replicates) to achieve six concentrations for each compound. Six vehicle controls with media or 0.5% DMSO were run for each 96-well plate as a control. After incubating for 24 h, the numbers of viable cells were determined by the MTT test. Briefly, the media was removed from the 96 well plate and replaced with 100 µL of fresh culture RPMI 1640 medium without phenol red then 10 µL of the 12 mM MTT stock solution (5 mg of MTT in 1 mL of PBS) to each well including the untreated controls. The 96-well plates were then incubated at 37 °C and 5% CO2 for 4 h. An 85 µL aliquot of the media was removed from the wells, and 50 µL of DMSO was added to each well, mixed thoroughly with the pipette, and incubated at 37 °C for 10 min. Then, the optical density was measured at 590 nm with the microplate reader (SunRise, TECAN, Inc., Morrisville, NC, USA) to determine the number of viable cells, and the percentage of viability was calculated as […], where ODt is the mean optical density of wells treated with the tested sample and ODc is the mean optical density of untreated cells. The relation between surviving cells and drug concentration was plotted to obtain the survival curve of each tumor cell line after treatment with the specified compound. […] Each concentration was repeated four times.

[2] = tested on: HepG-2 cells; assay: MTT cytotoxicity assay on HepG-2 cells; type: cell-based, human; conditions: Homo sapiens, HepG2; for viability at 1.25 µM: HepG-2, 1.25 µM; for viability at 1.25 µM / viability at 2.5 µM / viability at 5 µM / viability at 10 µM / viability at 20 µM / viability at 40 µM / viability at 80 µM / viability at 160 µM: Table S1; for viability at 2.5 µM: HepG-2, 2.5 µM; for viability at 5 µM: HepG-2, 5 µM; for viability at 10 µM: HepG-2, 10 µM; for viability at 20 µM: HepG-2, 20 µM; for viability at 40 µM: HepG-2, 40 µM; for viability at 80 µM: HepG-2, 80 µM; for viability at 160 µM: HepG-2, 160 µM; for IC50: MTT, 24 h treatment, mean of three experiments ± SEM
Method: as §1

[3] = MTT, 24 h treatment, mean of three experiments ± SEM, read-out: IC50 (µM) MCF-7
[4] = Table S2, read-out: IC50 (µM) on MCF-7 cell line

SMILES | viability at 1.25 µM ([1]; Table S2) [%] | viability at 2.5 µM ([1]; Table S2) [%] | viability at 5 µM ([1]; Table S2) [%] | viability at 10 µM ([1]; Table S2) [%] | viability at 20 µM ([1]; Table S2) [%] | viability at 40 µM ([1]; Table S2) [%] | viability at 80 µM ([1]; Table S2) [%] | viability at 160 µM ([1]; Table S2) [%] | IC50 [1, 3] [µM] | viability at 1.25 µM [2] [%] | viability at 2.5 µM [2] [%] | viability at 5 µM [2] [%] | viability at 10 µM [2] [%] | viability at 20 µM [2] [%] | viability at 40 µM [2] [%] | viability at 80 µM [2] [%] | viability at 160 µM [2] [%] | IC50 [2] [µM] | IC50 [1, 4] [µM]
O=C1Nc2ccccc2C1=Nc1ccc2nc[nH]c(=O)c2c1 [Compound 7, 6-(2-Oxo-1,2-dihydro-indol-3-ylideneamino)-3H-quinazolin-4-one] | 101 ± 7.2 | 93.7 ± 8.2 | 87.6 ± 6.1 | 78.2 ± 5.3 | 66.3 ± 4 | 53.1 ± 2 | 45.2 ± 1.4 | 36.8 ± 1.2 | 21.9 ± 1.83 | 83.4 ± 6.9 | 70.9 ± 6 | 61.9 ± 5.1 | 49.3 ± 2.2 | 35.9 ± 2.1 | 26.5 ± 1.9 | 9.4 ± 0.4 | 7.2 ± 0.2 | 10.8 ± 0.92 | 
O=C1Nc2ccc(F)cc2/C1=N/c1ccc2nc[nH]c(=O)c2c1 [Compound 8, 6-(5-Flouro-2-oxo-1,2-dihydro-indol-3-ylideneamino)-3H-quinazolin-4-one] | 104 ± 4.9 | 94.2 ± 4 | 87.9 ± 3.9 | 75.7 ± 3.2 | 57.1 ± 2.4 | 43.9 ± 2 | 29.7 ± 1.4 | 11.5 ± 0.7 | 52.8 ± 3.21 | 88 ± 7.6 | 71.2 ± 6.1 | 62.3 ± 4.3 | 48.2 ± 1.8 | 33.6 ± 0.13 | 17.5 | 15.1 ± 1.4 | 9.3 ± 1.1 | 7.54 ± 0.53 | 
O=C1Nc2ccc(Br)cc2C1=Nc1ccc2nc[nH]c(=O)c2c1 [Compound 10, 6-(5-Bromo-2-oxo-1,2-dihydro-indol-3-ylideneamino)-3H-quinazolin-4-one] | 98.3 ± 7.4 | 99.1 ± 6.9 | 87.2 ± 5.7 | 76.5 ± 4 | 65.2 ± 2.8 | 55.4 ± 2.6 | 41.2 ± 2.8 | 25.4 ± 2.6 | > 100 | 91.2 ± 7 | 87.9 ± 8.1 | 83 ± 5.2 | 71.4 ± 4.5 | 58.7 ± 4.3 | 35.8 ± 2.1 | 19.4 ± 1.2 | 14.2 ± 0.9 | 28.1 ± 2.08 | 112 ± 11.2
O=C1Nc2ccc([N+](=O)[O-])cc2C1=Nc1ccc2nc[nH]c(=O)c2c1 [Compound 11, 6-(5-Nitro-2-oxo-1,2-dihydro-indol-3-ylideneamino)-3H-quinazolin-4-one] | 116 ± 6.4 | 97.5 ± 7 | 90.1 ± 6.4 | 86 ± 5.5 | 63.9 ± 3.8 | 39.1 ± 2.9 | 25.6 ± 1.3 | 11.2 ± 0.4 | 72.4 ± 6.51 | 99.2 ± 6.9 | 91.3 ± 7.9 | 89.4 ± 6.4 | 79.5 ± 5.5 | 67.1 ± 3.8 | 54.6 ± 1.9 | 44.1 ± 1.3 | 37.6 ± 1.1 | 20.9 ± 1.54 | 
Cc1ccc2c(c1)C(=Nc1ccc3nc[nH]c(=O)c3c1)C(=O)N2 [Compound 12, 6-(5-Methyl-2-oxo-1,2-dihydro-indol-3-ylideneamino)-3H-quinazolin-4-one] | 104 ± 5.4 | 91.4 ± 4.1 | 80 ± 4.2 | 69.2 ± 2.7 | 58.5 ± 1.5 | 30.1 ± 1.2 | 21.5 ± 1.5 | 9.15 ± 1.2 | 46.2 ± 2.47 | 96.4 ± 6.9 | 84.9 ± 6.1 | 81.8 ± 5.4 | 69.1 ± 4.1 | 58.9 ± 2.2 | 49.7 ± 1.7 | 36.3 ± 0.5 | 33.9 ± 1.2 | 31.9 ± 2.12 | 
COc1ccc2c(c1)C(=Nc1ccc3nc[nH]c(=O)c3c1)C(=O)N2 [Compound 13, 6-(5-Methoxy-2-oxo-1,2-dihydro-indol-3-ylideneamino)-3H-quinazolin-4-one] | 109 ± 7.3 | 108 ± 7.4 | 99.6 ± 6.5 | 87.6 ± 4.6 | 71.9 ± 3.2 | 67.6 ± 2.7 | 60.8 ± 1.5 | 56.8 ± 0.9 | > 100 | 88.2 ± 7.4 | 86.5 | 75.9 ± 4.6 | 61.5 ± 3.2 | 40.9 ± 2.7 | 26.6 ± 1.5 | 7.9 ± 0.9 | 3.9 ± 0.3 | 18.9 ± 1.05 | 123 ± 13.2
O=C1Nc2ccccc2C1=Nc1ccc(-c2nc3ccccc3c(=O)[nH]2)cc1 [Compound 18, 2-[4-(2-Oxo-1,2-dihydro-indol-3-ylideneamino)-phenyl]-3H-quinazolin-4-one] | 109 ± 6.2 | 92 ± 6.8 | 94.2 ± 5.8 | 80.8 ± 4.9 | 84.8 ± 2.9 | 83.8 ± 2.8 | 74.3 ± 1.2 | 67.9 ± 0.8 | > 100 | 78 ± 7.2 | 75.6 ± 6.8 | 73.5 ± 5.8 | 55.9 ± 4.1 | 40.4 ± 2.9 | 24.9 ± 2.8 | 4.54 ± 0.23 | 1.95 ± 0.19 | 82.4 ± 7.17 | 143 ± 16.2
O=C1Nc2ccc(F)cc2/C1=N/c1ccc(-c2nc3ccccc3c(=O)[nH]2)cc1 [Compound 19, 2-[4-(5-Flouro-2-oxo-1,2-dihydro-indol-3-ylideneamino)-phenyl]-3H-quinazolin-4-one] | 109 ± 6.6 | 99.3 ± 5.3 | 93.9 ± 4.9 | 81.2 ± 3.9 | 59 ± 2.4 | 36.4 ± 1.7 | 16.4 ± 1.8 | 12 ± 1.2 | 40.8 ± 3.24 | 68.4 ± 6.6 | 75 ± 5.3 | 72.3 ± 5.9 | 58.4 ± 3.5 | 46.3 ± 2.4 | 26.6 ± 1.7 | 13.6 ± 0.8 | 7.47 ± 0.2 | 28.4 ± 1.26 | 
O=C1Nc2ccc(Br)cc2C1=Nc1ccc(-c2nc3ccccc3c(=O)[nH]2)cc1 [Compound 21, 2-[4-(5-Bromo-2-oxo-1,2-dihydro-indol-3-ylideneamino)-phenyl]-3H-quinazolin-4-one] | 103 ± 7.7 | 99.6 ± 6.8 | 91.6 ± 5.5 | 78.2 ± 4.6 | 66.3 ± 3.4 | 33.2 ± 2.5 | 16 ± 1.1 | 10.3 ± 0.9 | 33.6 ± 2.33 | 98.3 ± 7.7 | 82.5 ± 6.8 | 77.8 ± 5.5 | 61.4 ± 4.6 | 47 ± 3.4 | 23 ± 1.5 | 9.33 ± 1.1 | 6.14 ± 0.9 | 23.7 ± 0.74 | 
O=C1Nc2ccc([N+](=O)[O-])cc2C1=Nc1ccc(-c2nc3ccccc3c(=O)[nH]2)cc1 [Compound 22, 2-[4-(5-Nitro-2-oxo-1,2-dihydro-indol-3-ylideneamino)-phenyl]-3H-quinazolin-4-one] | 109 ± 8 | 99.6 ± 7.4 | 95.3 ± 5.9 | 79.1 ± 5.1 | 63.6 ± 3.8 | 49.9 ± 3.3 | 23.5 ± 2.5 | 12.9 ± 1.3 | 14.9 ± 0.66 | 79.2 ± 7.2 | 73.3 ± 6.5 | 63 ± 5.9 | 48.5 ± 4.1 | 38 ± 3.8 | 26.1 ± 2.3 | 8.22 ± 0.5 | 4.17 ± 0.2 | 35.8 ± 2 | 
